Test [1] has as its target T1, Enoyl-[acyl-carrier-protein] reductase [NADPH] FabI (Staphylococcus aureus, UniProt Q6GI75).
T1 sequence (Q6GI75 whole entry): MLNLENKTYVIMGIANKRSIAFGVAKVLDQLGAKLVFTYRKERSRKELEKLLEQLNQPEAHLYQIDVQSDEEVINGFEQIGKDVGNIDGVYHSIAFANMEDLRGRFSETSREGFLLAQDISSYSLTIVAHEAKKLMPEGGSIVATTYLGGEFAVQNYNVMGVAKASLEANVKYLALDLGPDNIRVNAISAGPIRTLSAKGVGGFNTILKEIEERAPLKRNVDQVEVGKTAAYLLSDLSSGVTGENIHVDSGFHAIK
Briefly: Inhibition of Staphylococcus aureus ATCC 29213 FabI in the presence of NADH using crotonyl CoA as substrate by measuring NADH consumption rate.

Test [2] concerns Staphylococcus aureus. In words: Antibacterial activity against Methicillin-resistant Staphylococcus aureus N315 assessed as reduction in bacterial growth. In kind it is functional.
The target in test [3] is T2, Enoyl-[acyl-carrier-protein] reductase [NADH] FabI (Escherichia coli K-12, UniProt P0AEK4).
T2 sequence (P0AEK4 whole entry): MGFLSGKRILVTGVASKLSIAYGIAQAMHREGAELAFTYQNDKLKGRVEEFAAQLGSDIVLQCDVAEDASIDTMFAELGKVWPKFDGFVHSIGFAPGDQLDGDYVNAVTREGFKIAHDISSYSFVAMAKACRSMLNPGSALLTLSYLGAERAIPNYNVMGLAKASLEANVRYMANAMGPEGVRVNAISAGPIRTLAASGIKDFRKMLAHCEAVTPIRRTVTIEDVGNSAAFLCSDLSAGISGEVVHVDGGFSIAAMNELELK
Briefly: Inhibition of Escherichia coli DH5alpha FabI in the presence of NADH using crotonyl CoA as substrate by measuring NADH consumption rate.

The test system of test [4] is Escherichia coli. Briefly: Antibacterial activity against Escherichia coli assessed as bacterial growth inhibition at 50 uM measured after 24 hrs by 96-wellplate reader assay method. It is filed as functional.
Test [5] can be described thus: Inhibition of Francisella tularensis FabI by addition of crotonyl-CoA as substrate preincubated for 10 mins followed by substrate addition in presence of NAD by spectrophotometer.
The subject of test [6] is Staphylococcus aureus. In words: Antibacterial activity against Methicillin-resistant Staphylococcus aureus ATCC 33592 assessed as bacterial growth inhibition measured after 24 hrs by broth dilution method. In kind it is functional.
Test [7] deals with Staphylococcus aureus. Briefly: Antibacterial activity against Staphylococcus aureus ATCC 29213 assessed as bacterial growth inhibition incubated for 24 hrs by broth dilution method. In kind it is functional.
Test [8] deals with Staphylococcus aureus. Briefly: Antibacterial activity against Staphylococcus aureus assessed as inhibition of bacterial growth measured after 24 hrs. In kind it is functional.
Test [9] concerns Moraxella catarrhalis. Briefly: Antibacterial activity against Moraxella catarrhalis assessed as inhibition in bacterial growth measured after 24 hrs by broth microdilution method. In kind it is functional. In general terms: In broth dilution the organism is exposed to a series of concentrations in liquid medium.
In test [10] the target is T1, Enoyl-[acyl-carrier-protein] reductase [NADPH] FabI. Briefly: Inhibition of Staphylococcus aureus FabI in the presence of NADH using crotonyl CoA as substrate by measuring NADH consumption rate.
In test [11] the test system is Mycobacterium tuberculosis. In words: Antimycobacterial activity against Mycobacterium tuberculosis H37Rv assessed as reduction in bacterial growth incubated for 7 days by dye based assay. In kind it is functional. The note with it: 168 h, time 7 day.
The target in test [12] is T2, Enoyl-[acyl-carrier-protein] reductase [NADH] FabI. Briefly: Inhibition of Escherichia coli FabI in the presence of NADH using crotonyl CoA as substrate by measuring NADH consumption rate.
The test system of test [13] is Mycobacterium tuberculosis. In words: Antimycobacterial activity against Mycobacterium tuberculosis H37Rv after 14 days. The note with it: 336 h, time 14 day. In kind it is functional.
In test [14] the test system is Staphylococcus aureus. Briefly: Antibacterial activity against quinolone-resistant Staphylococcus aureus. In kind it is functional.
The test system of test [15] is Staphylococcus aureus. Briefly: Antibacterial activity against methicillin-resistant Staphylococcus aureus ATCC 4330 assessed as reduction in bacterial growth. In kind it is functional.
For test [16], the system named is Staphylococcus aureus. In words: Antibacterial activity against Methicillin-sensitive Staphylococcus aureus ATCC 4330 assessed as reduction in bacterial growth. In kind it is functional.
Test [17] can be described thus: Inhibition of Pseudomonas fluorescens FabG assessed as inhibition.
Test [18] in a line: Inhibition of Pseudomonas fluorescens FabI assessed as inhibition.
Test [19] relates to Escherichia coli. In words: Antibacterial activity against Escherichia coli ATCC 8730 assessed as inhibition of bacterial growth. It is filed as functional.
Test [20] relates to Bacillus subtilis. Briefly: Antibacterial activity against Bacillus subtilis ATCC 60511 assessed as reduction in bacterial growth at 25 ug/ml measured after 24 hrs serial dilution method. It is filed as functional. The note with it: dose 25 µg/ml.
Test [21] has as its system Staphylococcus aureus. In words: Antibacterial activity against Staphylococcus aureus ATCC 11632 assessed as reduction in bacterial growth at 25 ug/ml measured after 24 hrs serial dilution method. It is filed as functional. The note with it: dose 25 µg/ml.
The test system of test [22] is Vibrio cholerae. Briefly: Antibacterial activity against Vibrio cholerae. It is filed as functional.

pIC50: −log10 of the molar value. In brackets after ≈: the same amount, converted by molar mass.

For orientation: pIC50 means the negative decadic logarithm of the IC50, by convention in mol/L. By MIC90 is commonly meant the lowest concentration that inhibits either 90% of growth or 90% of the strains tested, depending on the study. As for `Cc1cccc(Cl)c1Cc1c(Cl)n(Cc2cccc(Cl)c2)ccc1=O`, the pIC50 in test [1] and in test [3] was 6.47 each time. Besides, in test [2], the MIC90 came out at 0.5 µg/mL (≈ 1.27 µM).

The MIC is the least concentration at which growth counts as inhibited. In the case of `Oc1cc(F)ccc1Oc1ccccc1`, in test [4], the MIC came out at 0.6 µg/mL (≈ 2.94 µM).

Regarding `CC(c1ccc(Cl)c(Cl)c1)n1cnc2cc3c(cc21)CCCC3` (stereo not drawn), the pIC50 in [5] was 7.85. Besides, the MIC in [6] and in test [7] was 3.1 µg/mL (≈ 8.98 µM) in each case.

As for `Cc1cccc(Cl)c1Cc1c(Cl)n(Cc2cccs2)ccc1=O`, the negative logarithm of the IC50 (pIC50) in test [1] is 6.46; in [3], 6.40. In addition, the MIC90 in test [2] was found to be 2 µg/mL (≈ 5.49 µM).

As for `O=C(c1ccc(O)cc1)N1CCc2c(n(Cc3ccc(O)cc3)c3ccccc23)C1`, the values for the MIC in test [8] and in [9] were 0.5 µg/mL (≈ 1.25 µM) and 8 µg/mL (≈ 20.1 µM), respectively.

Take `Cc1ccc(C(=O)N2CCc3c(n(Cc4ccc(O)cc4)c4ccccc34)C2)c(O)c1`: the figures for the MIC in test [8] and in test [9] were 1 µg/mL (≈ 2.42 µM) and 4 µg/mL (≈ 9.7 µM), respectively.

Turning to `CC1CC(=O)c2c(cc3c(-c4c(O)cc(O)c5c(O)c6c(cc45)OC(C)CC6=O)c(O)cc(O)c3c2O)O1` (stereo not drawn) [CEPHALOCHROMIN], the pIC50 in test [1] was 5.72; in [3], 5.74.

`Cc1ccc(Oc2coc(COc3ccccc3)cc2=O)c(C)c1`: in test [10], the pIC50 was 3.42. Further, in [2], the MIC was determined as 1.56 µg/mL (≈ 4.85 µM).

In the case of `Oc1cc(Cl)ccc1Oc1ccccc1`, in test [4], the MIC was found to be 0.07 µg/mL (≈ 0.317 µM).

On to `Cc1csc(C(C)(O)c2nnc(Nc3ccn(Cc4c(F)cccc4F)n3)s2)n1` (stereo not drawn), for which the MIC in test [11] stood at 0.2 µM (≈ 0.0869 µg/mL).

`Cc1cc(Cl)ccc1Oc1c[nH]c(COc2ccccc2)cc1=O`: in test [12], the pIC50 is 6.40.

Consider `Oc1cc(Cn2cc(C3CC3)nn2)ccc1Oc1ccccc1Cl`, for which the MIC in test [13] came to 0.156 µg/mL (≈ 0.456 µM).

As to `CN1C(=O)[C@@H](c2cc(Cl)c(O)c(Cl)c2)NC(=O)[C@@H]2NC(=O)[C@@H](c3cc(Cl)c(O)c(Cl)c3)NC(=O)[C@H](NC(=O)C(=O)c3cc(Cl)c(O)c(Cl)c3)CC3C(=O)Nc4cc(ccc43)-c3cc2cc(c3O)Oc2ccc(cc2)C[C@H]1C(=O)N[C@@H](C(=O)O)c1ccc(O)cc1` (stereo partly drawn) [COMPLESTATINS A], the pIC50 in test [1] is 6.22. In addition, the MIC in test [14] stood at 4 µg/mL (≈ 2.97 µM).

Consider `Cc1cc(Cl)ccc1Oc1coc(/C=C/c2ccc[nH]2)cc1=O`, for which the pIC50 in [12] is 6.85.

Consider `CC(C)=CCc1c(O)cc(-c2cc3ccc(O)cc3o2)cc1O` [MORACIN C], for which, in test [8], the MIC is 32 µg/mL (≈ 103 µM).

`Cc1c(CN(C)C(=O)/C=C/c2cnc3c(c2)C2(CCC2)C(=O)N3)sc2ccccc12`: the MIC in [15] and in test [16] was 0.015 µg/mL (≈ 0.0359 µM) throughout.

Consider `Cc1ccc(Oc2cn(C)c(COc3ccccc3)cc2=O)c(C)c1`, for which the negative-log IC50 (pIC50) in test [10] was 4.10. Moreover, in test [2], the MIC came out at 0.049 µg/mL (≈ 0.146 µM).

As a reminder, the IC50 is the concentration at which inhibition is half-maximal. Regarding `C=C1C(=O)OC[C@H]1C(/C=C(\C)CC(=O)C=C(C)C)OC(C)=O` (stereo partly drawn), the IC50 in [17] came to 50 µg/mL (≈ 163 µM); in test [18], 25 µg/mL (≈ 81.6 µM).

In the case of `COc1nc2ccc(C)cc2cc1C1CC(=O)N1NC(=O)c1ccc(-n2cccc2)cc1` (stereo not drawn), the minimum inhibitory concentration (MIC) was 0.4 µg/mL (≈ 0.938 µM) in test [19], 12.5 µg/mL (≈ 29.3 µM) in test [20], 12.5 µg/mL (≈ 29.3 µM) in test [21] and 0.4 µg/mL (≈ 0.938 µM) in test [22].

As to `Cc1cc(Cl)ccc1Oc1cn(C)c(COc2ccccc2)cc1=O`, the pIC50 in test [12] was 6.96.

Take `CC(=O)c1cc2c(=O)c3c(C(=O)O)c(O)c(O)cc3oc2c(C(C)=O)c1-c1coc2cc(O)c(O)c(C(=O)O)c2c1=O` [VINAXANTHONE]: in test [1], the pIC50 is 6.05.

Values taken from ChEMBL document CHEMBL5230110, “FabI (enoyl acyl carrier protein reductase) - A potential broad spectrum therapeutic target and its inhibitors” (Eur J Med Chem, 2020).
